This note sets out measurements from patent publication US4634712A, “Antihypertensive esters of 1,4-dihydro-2,6-dimethyl-3-(alkoxycarbonyl or alkoxyalkoxycarbonyl)-4-(substituted phenyl)-pyridine-5-carboxylic acid” (Recordati S.A., priority 1984, dated 1987).

Structures are written as SMILES.

Series [1] relates to male hypertensive rats (SHR, Wister-Kyoto strain). In words: Antihypertensive activity in male hypertensive rats (SHR), systolic blood pressure by tail-cuff. The format is in vivo. Conditions: Rattus norvegicus, po, os, 0.5% methylcellulose, measured 1, 3, 5 and 7 hours after administration. Here is the method:
The antihypertensive activity of the esters according to the invention was evaluated in male hypertensive rats (SHR, Wister-Kyoto strain, 15-25 weeks old). The determination of blood pressure was performed by an indirect method (M. Gerald et al., Arzneim, Forsch., 18, 1825, 1968). The animals were prewarmed in a heating chamber at a temperature of from 35° to 37° C. for a period of 15 minutes before pressure determination. The compounds tested by oral route were dissolved or suspended in a 0.5% methylcellulose solution. Controls were given only the vehicle. Systolic blood pressure and heart rate were measured 1, 3, 5 and 7 hours after drug administration by means of a tail-cuff and a pulse transducer.

A short description of series [2]: LD50 in the mouse per os (method of C. S. Weil). Conditions: in vivo, po. The protocol:
The LD50 of the compounds according to the invention was determined in the mouse per os, according to the method described by C. S. Weil (Biometrics, 8, 249, 1952).

The test system of series [3] is methacholine induced coronary spasm. The experiment in a line: Coronary dilating activity in anesthetized normotensive rats, antagonism of methacholine induced coronary spasm. As to conditions: Rattus norvegicus, iv infusion, water:dimethylformamide 9:1. In kind it is in vivo. Here is the method:
Coronary dilating activity was evaluated in anesthetized normotensive rats (weighing about 500 g), as the ability to antagonize methacholine induced coronary spasm. Rats were instrumented for methacholine infusion into the coronary ostium, while spastic activity was detected as ST segment elevation in D2 ECG recording (K. Sakai et al., J. Pharm. Meth., 5, 325, 1981). The compounds tested by i.v. infusion were dissolved in water:dimethylformamide (9:1 by volume). Activity was detected as normalization of ECG tracing after compounds administration during methacholine infusion.

In series [1], `COc1ccc(C(C#N)(CCCN(C)CC(C)OC(=O)C2=C(C)NC(C)=C(C(=O)OCC(C)C)C2c2cccc(Cl)c2Cl)C(C)C)cc1OC` (centres unmarked) [Compound 2392, Isobutyl 2-[4-cyano-4-(3,4-dimethoxyphenyl)-5,N-dimethyl-hexylamino]-1-methylethyl 1,4-dihydro-2,6-dimethyl-4-(2,3-dichlorophenyl)-pyridine-3,5-dicarboxylate] yielded an ED25 of 14.9 mg/kg.

As usually defined, the LD50 is the dose at which mortality reaches 50%. High values mean lower toxicity, low ones greater toxicity. The term ED50 denotes the dose at which the effect has come halfway, by size or by number of responders. With `COC(=O)C1=C(C)NC(C)=C(C(=O)OCCN(C)CCCC(C#N)(c2ccc(OC)c(OC)c2)C(C)C)C1c1cccc([N+](=O)[O-])c1` (centres unmarked) [Compound 2245, Methyl 2-[4-cyano-4-(3,4-dimethoxyphenyl)-5,N-dimethyl-hexylamino]-ethyl 1,4-dihydro-2,6-dimethyl-4-(3-nitrophenyl)-pyridine-3,5-dicarboxylate], the LD50 in series [2] is 278 mg/kg. For the same molecule, the ED25 in series [1] was 6.8 mg/kg. In series [3], this molecule came in with an ED50 of 0.301 mg/kg.

The molecule `CCCOCCOC(=O)C1=C(C)NC(C)=C(C(=O)OC(C)CN(C)CCCC(C#N)(c2ccc(OC)c(OC)c2)C(C)C)C1c1cccc(Cl)c1Cl` (centres unmarked) [Compound 2404, 2-Propoxy-ethyl 2-[4-cyano-4-(3,4-dimethoxyphenyl)-5,N-dimethyl-hexylamino]-1-methylethyl 1,4-dihydro-2,6-dimethyl-4-(2,3-dichlorophenyl)-pyridine-3,5-dicarboxylate] showed an ED25 in series [1] of 17.8 mg/kg.
